Source: patent US20190192524A1, “Modulators of Caspase-6” (The University of British Columbia, priority 2014, published 2019)

Columns and labels:
[1] = target: T1, recombinant caspase-6 (Homo sapiens, UniProt P55212); assay: Simultaneous caspase-6 cleavage and 586 fragment detection by FRET; assay type: biochemical; details: cell-free; Htt substrate from COS-7 cell lysates
T1 construct: purchased BioMol
T1 sequence (P55212 24-293): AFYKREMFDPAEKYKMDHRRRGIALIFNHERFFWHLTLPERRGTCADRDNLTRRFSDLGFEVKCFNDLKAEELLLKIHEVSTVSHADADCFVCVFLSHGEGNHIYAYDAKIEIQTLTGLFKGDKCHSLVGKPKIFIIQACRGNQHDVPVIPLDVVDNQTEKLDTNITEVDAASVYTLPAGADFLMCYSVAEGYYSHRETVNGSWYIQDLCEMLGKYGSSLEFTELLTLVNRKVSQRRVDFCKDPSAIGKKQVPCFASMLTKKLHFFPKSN
Description: Different concentrations of the PG3 compounds were incubated with the Htt protein and the caspase-6 enzyme. The Htt substrate from COS-7 cell lysates is cleaved by caspase 6 and fragments are detected by FRET between the N-terminal BKP1 antibody and the neo-epitope antibody against amino acid 586.
COS-7 cells were grown in DMEM supplemented with 10% fetal bovine serum, 1%/penicillin/streptomycin and 0.5% glutamine. Transfections were performed using the Fugene reagent (Roche) according to manufacturer's instructions. The transfected DNA encodes amino acids 1-1212 of the human Htt protein with 15 glutamines and a C-terminal HA-tag, under control of a CMV promoter (Warby, 2008, supra; Wellington et al., 2000. J Biol Chem 275:19831-19838). The construct that was transfected is 4c Htt, which contains D→A mutations at amino acids 513, 530, 552 and […] (SEQ ID NO: 1). 24 h after transfection, cells were harvested by trypsinization, pellets washed in PBS and lysed by suspension in lysis buffer (50 mM Tris pH 8, 150 mM NaCl, 1% Igepal, supplemented with 1× complete protease inhibitor (Roche) and 4 mM Pefabloc). Lysates were incubated on ice for 10 min, vortexed and sonicated for 4 sec before centrifugation at 21,000×g for 10 min at 4° C. Supernatants were saved, protein concentration determined with the Biorad DC assay and stored at −80° C. until use.
Dilution series of cell lysates and caspase-6 (2.2× final concentration) were prepared in FRET cleavage buffer (10 mM HEPES pH 7.4, 100 mM NaCl, 0.05% gelatin, 0.1% CHAPS, 2 mM DTT) since this buffer was previously found to best stabilize caspase-6 in dilute form at room temperature. For negative controls, 22 μM zVAD-fmk was added to the caspase-6 dilutions.
Tb-labelled BKP1 antibody and D2-labelled 586 antibody (Cisbio) were diluted to 1 ng/μl (Tb) and 10 ng/μl (D2) in FRET cleavage buffer and pre-mixed at a 1:1 ratio.
In each well of a white 384 well plate (Nunc), 10 μl cell lysate were mixed with 10 μl caspase and 2 μl antibody mix, the plate was centrifuged briefly and incubated in the Victor 3 multilabel plate reader (Perkin Elmer) at 37° C. FRET was measured every 30 min for up to 2 h with the following settings: Excitation: 340 nm, Emission 1: 615 nm, Emission 2: 665 nm, 50 μs delay, 200 μs window time, 2000 μs cycle time. To obtain the final FRET signal, the ratio between Emission 2/Emission 1 (D2/Tb signal) was calculated. After 2 h at 37° C., the assay plate was sealed and after further incubation at 4° C. for 20 h, the FRET signal was read again.

[2] = target: T2, human caspase 6 lacking the pro-domain (Homo sapiens, UniProt P55212); assay: Lamin A cleavage in HEK 293 cells overexpressing caspase-6 (Mesoscale ELISA); assay type: cell-based; design: The transfected DNA encodes amino acids 24-293 of the human caspase 6 enzyme with a C-terminal DDK tag; DDK-tag (C); expressed in transfected cells; host or cells: HEK 293; details: 24 hr incubation; cleaved lamin A quantified; read-out: HEK intracellular IC50
T2 sequence (P55212 with tags, fused parts or gaps): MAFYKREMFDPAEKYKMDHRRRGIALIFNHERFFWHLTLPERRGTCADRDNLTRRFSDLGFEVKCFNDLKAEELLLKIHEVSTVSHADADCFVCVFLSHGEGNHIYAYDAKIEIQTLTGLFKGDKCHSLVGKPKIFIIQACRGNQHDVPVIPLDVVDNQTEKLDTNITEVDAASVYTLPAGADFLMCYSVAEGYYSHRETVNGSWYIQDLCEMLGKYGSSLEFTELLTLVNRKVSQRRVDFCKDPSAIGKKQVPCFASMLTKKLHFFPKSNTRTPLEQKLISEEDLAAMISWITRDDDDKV
Description: HEK 293 cells were grown in DMEM supplemented with 10% fetal bovine serum, 1%/penicillin/streptomycin and 0.5% glutamine. Transfections were performed using the Fugene reagent (Roche) according to manufacturer's instructions. The transfected DNA encodes amino acids 24-293 of the human caspase 6 enzyme with a C-terminal DDK tag under the control of a CMV promoter (vector pCMVSport6) (SEQ ID NO: 2). The transfected HEK 293 were used to measure the intracellular activity of caspase-6 as evidenced by cleavage of the lamin substrate (described below).
The quantitative assessment of intracellular lamin cleavage in caspase-6 transfected HEK 293 cells was done as described previously (Ehrnhoefer et al. PLoS One, 2011. 6(11):e27680) Briefly, HEK 293 cell lysates were adjusted to 1 μg protein/μl in lysis buffer, diluted to 0.2 μg/μl in PBS and 5 μl were added to a Multi-Array high-bind 96 well plate (Mesoscale discovery). After incubation at room temperature for 1 h, the wells were blocked by adding 150 μl 5% BSA in PBS, followed by further incubation at room temperature for 1 h. Wells were then washed 3× with 150 μl PBS+0.05% Tween, and 25 μl antibody mix was added (Cell signaling #2036 at 1:100 dilution, Mesoscale discovery goat-anti-rabbit sulfo-tag at 1:500 dilution in PBS with 1% BSA). After lh incubation at room temperature, the wells were washed 3× with 150 μl PBS+0.05% Tween, and 150 μl/well 2× reading reagent (Mesoscale discovery) was added. The plate was read on a Sector imager 6000 (Mesoscale discovery).
The PG3 analog compounds were also tested for their ability to inhibit caspase-6 within cultured cells. HEK 293 cells were transfected with human caspase 6 lacking the pro-domain and were incubated with increasing concentrations of the PG3 analogs. After a 24 hr incubation, the excess compound was washed away, the cells were lysed and the amount of cleaved lamin A protein was quantified by the Mesoscale ELISA method.

[3] = target: T2, human caspase 6 lacking the pro-domain; assay: Intracellular Htt cleavage by Western blot in co-transfected COS-7 cells; assay type: cell-based; design: DDK-tag (C); expressed in transfected cells; host or cells: COS-7; details: 3 uM inhibitor
Description: COS-7 cells were co-transfected with the 4c htt fragment and the human caspase-6 lacking the pro-domain which leads to fast autoactivation of the caspase-6 enzyme and the generation of the 586 aa Htt cleavage fragment. The co-transfected cells were exposed to either 10 uM of the PG3d compound, 3 uM of the Q-VD-Oph pan-caspase inhibitor or were left untreated. Non-transfected cells were included as a negative control and the purified 586 aa Htt fragment was included as a positive control. Cell lysates were subjected to Western blotting and the 586AA fragment generated intracellularly was detected with Htt antibody 2166 (Millipore). Caspase-6 expression and activation was assessed by Western blotting using antibody HD91 (Ehrnhoefer et al, HMG, 2014. 23(3):717-29).
COS-7 cells were co-transfected with the 4c htt fragment and the human caspase-6 lacking the pro-domain which leads to fast autoactivation of the caspase-6 enzyme and the generation of the 586 aa Htt cleavage fragment. […] Non-transfected cells were included as a negative control and the purified 586 aa Htt fragment was included as a positive control. […] The cell lysates were also assayed for the levels of active caspase 6 enzyme as shown in the lower panel of FIG. 5B.

[4] = target: T3, interaction between 1212AA Htt and caspase-6 (Homo sapiens, UniProt P55212); assay: Co-immunoprecipitation of Htt with caspase-6 antibody from COS-7 lysates; assay type: cell-based; details: 3 uM inhibitor, vs DMSO
T3 construct: DDK-tag (C); expressed in transfected cells; host or cells: COS-7
T3 sequence (P55212 with tags, fused parts or gaps): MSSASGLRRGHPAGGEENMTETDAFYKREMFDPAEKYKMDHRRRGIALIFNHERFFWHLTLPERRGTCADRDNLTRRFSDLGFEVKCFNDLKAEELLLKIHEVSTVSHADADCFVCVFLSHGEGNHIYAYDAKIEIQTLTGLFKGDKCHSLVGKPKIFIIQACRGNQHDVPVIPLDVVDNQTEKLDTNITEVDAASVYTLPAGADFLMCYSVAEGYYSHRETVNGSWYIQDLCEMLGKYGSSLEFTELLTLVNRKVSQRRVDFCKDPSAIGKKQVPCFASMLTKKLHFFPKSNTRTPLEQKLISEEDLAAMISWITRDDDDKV
Description: (§1) COS-7 cells were co-transfected with the 1212 amino acid HTT fragment (SEQ ID NO: 3) and the full length human caspase-6 enzyme (SEQ ID NO:4). The co-transfected cells were exposed to either 10 uM of the PG3d compound, 3 uM of the Q-VD-Oph pan-caspase inhibitor or were treated with DMSO as a control. An aliquot of the cell lysates were subjected to Western blotting to detect HTT fragments with the Htt antibody 2166 (Millipore) and the presence of caspase-6 was detected using the HD91 antibody (Ehrnhoefer et al, HMG, 2014. 23(3):717-29). The remaining cell lysates (500 ug protein) were immunoprecipitated with 5 ug of Caspase-6 antibody for 16 hrs at 4 C. The immunoprecipitated proteins were then applied to acrylamide gels and immunoblotted to detect either the HTT fragments or the presence of the active caspase 6 enzyme using the antibodies described above.
As expected, the DMSO control lysates reveal a variety of Htt fragments within the immunocomplexes, including 513AA fragment generated by caspase-3 cleavage, the full-length 1212AA Htt and the 586AA fragment generated by caspase-6 cleavage. When the cells are treated with the pan-caspase inhibitor Q-VD-OPh, the amount of Htt cleavage fragments interacting with caspase-6 is reduced and it is evident that caspase-6 is primarily interacting with the 1212 AA Htt.

[5] = target: T4, full-length human caspase-6 (Homo sapiens, UniProt P55212); assay: Western blot of Htt fragments in COS-7 cells co-transfected with Htt 1-1212AA and full-length caspase-6; assay type: cell-based; details: 3 uM inhibitor, 24 hr, vs DMSO
T4 construct: DDK-tag (C); expressed in transfected cells; host or cells: COS-7
T4 sequence (P55212 with tags, fused parts or gaps): T3 sequence (P55212 with tags, fused parts or gaps)
Description: as §1
Cos-7 cells were co-transfected with Htt 1-1212AA (SEQ ID NO:3) and full-length human caspase-6 (SEQ ID NO:6), and exposed to either the pan-caspase inhibitor Q-VD-OPh, the PG3d compound or DMSO as a negative control. As shown in the upper panel of FIG. 9A, control cells that received DMSO alone (lanes labelled n.t.) show the presence of the Htt 1212AA protein and the Htt proteolytic cleavage fragments including the 586, 552 and 513 amino acid fragments. […]

SMILES: CCc1c(O)nc(C#Cc2ccccc2)oc1=O [PG-3b, 5-Ethyl-4-hydroxy-2-(phenylethynyl)-6H-1,3-oxazin-6-one]
- IC50 [1]: 8 µM
- IC50 [2]: 12.1 µM
- melting point: 177 to 178 °C

SMILES: CCCCc1c(O)nc(C#Cc2ccccc2)oc1=O [PG-3, 5-Butyl-4-hydroxy-2-(phenylethynyl)-6H-1,3-oxazin-6-one]
- IC50 [1]: 13.8 µM
- melting point: 157 to 159 °C

SMILES: CC(C)c1c(O)nc(C#Cc2ccccc2)oc1=O [PG-3c, 4-Hydroxy-5-isopropyl-2-(phenylethynyl)-6H-1,3-oxazin-6-one]
- IC50 [1]: 12.2 µM
- IC50 [2]: > 15 µM
- melting point: 202 to 203 °C

SMILES: O=C(C#Cc1ccccc1)NC(=O)Cc1ccccc1 [PG-3h, 3-Phenyl-N-(phenylacetyl)prop-2-ynamide]
- IC50 [1]: 8.1 µM
- IC50 [2]: 4.8 µM

SMILES: Cc1c(O)nc(C#Cc2ccccc2)oc1=O [PG-3a, 4-Hydroxy-5-methyl-2-(phenylethynyl)-6H-1,3-oxazin-6-one]
- IC50 [1]: 8.2 µM
- IC50 [2]: > 15 µM
- melting point: 184 to 186 °C

SMILES: Cc1c(O)nc(C#Cc2ccccc2Cl)oc1=O [PG-3f, 2-[(2-Chlorophenyl)ethynyl]-4-hydroxy-5-methyl-6H-1,3-oxazin-6-one]
- IC50 [1]: 57.3 µM
- melting point: 175 to 178 °C

SMILES: O=c1oc(C#Cc2ccccc2)nc(O)c1-c1ccccc1 [PG-3e, 4-Hydroxy-5-phenyl-2-(phenylethynyl)-6H-1,3-oxazin-6-one]
- IC50 [1]: 3.9 µM
- IC50 [2]: 2.5 µM
- melting point: 187 to 189 °C

SMILES: CC(C)[C@H](NC(=O)c1ccc2ccccc2n1)C(=O)N[C@@H](CC(=O)O)C(=O)COc1c(F)cccc1F [Q-VD-Oph, reference compound]
- cleavage of the Htt protein to the 586 amino acid fragment [3]: reduced cleavage
- level of active caspase-6 enzyme [3]: reduced level of active caspase-6 enzyme
- amount of Htt cleavage fragments interacting with caspase-6 [4]: reduced
- amount of Htt cleavage fragments [5]: reduction

SMILES: O=c1oc(C#Cc2ccc(Cl)cc2)nc(O)c1-c1ccccc1 [PG-3g, 2-[(4-Chlorophenyl)ethynyl]-4-hydroxy-5-phenyl-6H-1,3-oxazin-6-one]
- IC50 [1]: 7.5 µM
- IC50 [2]: 3.9 µM
- melting point: 185 to 187 °C (dec.)
